Source: PubChem BioAssay (NCI)
Where “and” joins values, the source holds several entries; their conditions need not be identical. Identical values can stand only once.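 Five compound concentrations were applied to cells in 96-well plates for 48 hours; endpoints were derived by simple linear interpolation of the resulting dose-response curve. GI50 = concentration required for 50% inhibition of growth. At the TGI there is no net growth.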

What was measured:
Experiment in all cases: NCI anticancer screen, dose series, 48 h
[1] = tested on: OVCAR-4 ovarian
[2] = tested on: SK-OV-3 ovarian
[3] = tested on: PC-3 prostate
[4] = tested on: KM12 colon
[5] = tested on: DU-145 prostate
[6] = tested on: A549 NSCLC
[7] = tested on: SR leukemia
[8] = tested on: IGROV1 ovarian
[9] = tested on: NCI-H226 lung
[10] = tested on: MDA-MB-435

Row | Compound | GI50 [1] | TGI [1] | GI50 [2] | TGI [2] | GI50 [3] | TGI [3] | GI50 [4] | TGI [4] | GI50 [5] | TGI [5] | GI50 [6] | TGI [6] | GI50 [7] | TGI [7] | GI50 [8] | TGI [8] | GI50 [9] | TGI [9] | GI50 [10] | TGI [10]
1 | O=C1C(Cl)=C(Oc2ccccc2)C(=O)c2ccccc21 | 2.58 µM | 7.22 µM | 6.51 µM | 23.6 µM | 4.34 µM | 20.9 µM | 2.84 µM | 8.84 µM | 16.2 µM | 31 µM | 21 µM | 51.8 µM | 4.49 µM | 39.1 µM | 2.96 µM | 9.63 µM | 12.1 µM | 28.7 µM | 8.06 µM | 24.1 µM
2 | O=C1NC(=O)[C@@H](c2cn3c4c(cccc24)CCC3)[C@@H]1c1c[nH]c2ccccc12 | 1.58 µM and 1.12 µM | > 10 µM and 20.2 µM | 0.48 µM and 0.372 µM | > 10 µM and 12.2 µM | 0.411 µM and 0.521 µM | > 10 µM and 37.4 µM | 0.382 µM and 0.433 µM | > 10 µM and 6.15 µM | 0.417 µM and 0.442 µM | > 10 µM and 6.81 µM | 0.617 µM and 0.516 µM | > 10 µM and 16.4 µM | 0.246 µM and 0.377 µM | > 10 µM and 27.6 µM | 0.592 µM and 0.833 µM | > 10 µM and 23.2 µM | > 2.61 µM and 1.48 µM | > 10 µM and 17.9 µM | 0.146 µM and 0.125 µM | 0.431 µM and 0.367 µM
3 | COc1c(O)cc2oc3cc(O)c(CC=C(C)C)c(O)c3c(=O)c2c1C/C=C(\C)CCC=C(C)C | 5.41 µM | 9.84 µM | 5.86 µM | 10.4 µM | 5.55 µM | 11.2 µM | 5.47 µM | 9.91 µM | 5.98 µM | 10.5 µM | 5.1 µM | 9.64 µM | 5.45 µM | 13.2 µM | 5.39 µM | 10.4 µM | 6.18 µM | 11.2 µM | 5.77 µM | 10.9 µM
4 | COc1ccc(/C=C(\C#N)n2nnc3cc(Cl)ccc32)cc1 | 2.51 µM | > 100 µM | 7.09 µM | > 82.3 µM | 0.498 µM | > 75.2 µM | 1.33 µM | 37.1 µM | 1.71 µM | 7.58 µM | 0.714 µM | > 100 µM | 0.336 µM | > 100 µM | 0.606 µM | > 37.9 µM | 1.27 µM | > 23.3 µM | 0.124 µM | 0.342 µM
5 | CCNCCNc1cc(-c2ccc(Cl)cc2)c(C#N)c2nc3ccccc3n12 | 1.64 µM | 4.09 µM | 1.85 µM | 3.47 µM | 1.86 µM | 3.39 µM | 1.73 µM | 3.24 µM | 1.71 µM | 3.09 µM | 1.92 µM | 3.62 µM | 0.282 µM | 0.69 µM | 1.68 µM | 3.37 µM | 1.79 µM | 4.31 µM | 1.58 µM | 2.95 µM
6 | COc1ccc(-n2c(-c3ccc(NC(=O)CCCl)cc3)nnc2-c2cc(OC)c(OC)c(OC)c2)cc1 | 4.1 µM | > 14.3 µM | 4.34 µM | > 14.3 µM | 4.45 µM | > 14.3 µM | 2.35 µM | 7.6 µM | 2.77 µM | 8.67 µM | 3.89 µM | 11.2 µM | 3.12 µM | 12.7 µM | 2.9 µM | > 14.3 µM | 10.8 µM | > 14.3 µM | 4.4 µM | > 14.3 µM
7 | CC(=O)C(C(=N)C#N)C(=O)Nc1ccccc1 (stereo not drawn) | – | > 100 µM | – | > 100 µM | – | > 100 µM | – | > 100 µM | – | > 100 µM | – | > 100 µM | – | > 100 µM | – | > 100 µM | – | > 100 µM | – | > 100 µM
8 | C[C@@H](Oc1cc(-c2cnn(C3CCNCC3)c2)cnc1N)c1c(Cl)ccc(F)c1Cl | – | > 10 µM | 5.85 µM | > 10 µM | 1.35 µM | > 10 µM | 0.053 µM | > 10 µM | 2.74 µM | > 10 µM | 0.947 µM | > 10 µM | 0.0453 µM | 1.09 µM | 2.17 µM | > 10 µM | 0.701 µM | > 10 µM | 0.715 µM | > 10 µM
9 | O=C1c2cccnc2-c2nc(-c3ccccn3)cc3c2c1nc1ccccc13 | 0.0699 µM | 0.26 µM | 0.192 µM | 0.581 µM | 0.557 µM | 1.85 µM | 0.426 µM | 3.17 µM | 0.156 µM | 0.57 µM | 1.38 µM | 3.39 µM | – | 25.3 µM | 0.099 µM | 0.305 µM | 0.936 µM | 2.89 µM | 0.728 µM | 2.09 µM
10 | c1ccc(Oc2c3ccccc3nc3ccccc23)cc1 | 4.33 µM | 21.2 µM | 4.34 µM | 21 µM | 4.91 µM | 15.8 µM | 3.64 µM | 11 µM | 3.72 µM | 11.2 µM | 4.62 µM | 27 µM | 2.97 µM | 54.3 µM | 4.31 µM | 15.8 µM | 6.89 µM | 27.1 µM | 1.77 µM | 6.16 µM
11 | Cc1c2ncccc2c(C)c2c1[nH]c1ccc(O)cc12 | – | 16 µM | – | 11.4 µM | 7.27 µM and 5.01 µM | 13.7 µM and 12.2 µM | 7.19 µM and 7.87 µM | 19.9 µM and 23.1 µM | 5.31 µM | 17.9 µM | 4.89 µM and 1.93 µM | 15.4 µM and 13 µM | 2.91 µM and 2.48 µM | 7.31 µM and 18.9 µM | 7.29 µM and 11.6 µM | 21.5 µM and 102 µM | 7.8 µM | 22.2 µM and 17.6 µM | – | 20.9 µM
12 | COc1ccc2c(CN3CCC(CO)CC3)cc3cc4c(cc3c2c1)OCO4 | 0.438 µM | 11.4 µM | 0.326 µM | 3.83 µM | 0.236 µM | 1.02 µM | 0.28 µM | 4.34 µM | 0.25 µM | 12.6 µM | – | – | 0.0666 µM | 0.712 µM | 0.305 µM | 11.6 µM | 0.225 µM | 0.56 µM | 0.275 µM | 1.41 µM
